# Results published in patent US20230085307A1, “PYRIDAZINONE COMPOUND AND HERBICIDE” (NISSAN CHEMICAL CORPORATION, priority 2019, published 2023).
# System: lambsquarters
# Assay: Test Example 4: herbicidal effect by soil treatment (Table 19, symbol O)
# Type: in vivo, lambsquarters (Chenopodium album)
# Conditions: amount of applied herbicide 320 g/ha
# How it was run: (§1)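 Pre-emergence style soil spray: seeds under ~1.5 cm sterilized diluvial soil received a uniform coat of emulsion diluted to the predetermined herbicide amount. Greenhouse 25–30° C; readout at week three on previously defined criteria.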
row,SMILES,"O: lambsquarters, herbicidal effect grade"
1,CCOc1cc(F)ccc1-c1sc2cc(Cl)c(Cl)cc2c1-c1c(O)c(C)nn(C)c1=O [5-053],0 (Herbicidal rate of 5% or less (almost no effect))

# System: Japanese bulrush
# Assay: Test Example 1: herbicidal activity, application before weed generation under submerged conditions (Table 16, symbol B)
# Type: in vivo, Japanese bulrush (Schoenoplectus juncoides)
# Conditions: amount of applied herbicide 320 g/ha
# How it was run: (§2)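 Submerged Wagner pots (alluvial soil, 4 cm water) sown with weed seeds and planted with 2.5-leaf rice seedlings; emulsifiable concentrate diluted in water applied to water surface on sowing day. Held in greenhouse at 25-30 °C; injury scored 0-5 by herbicidal rate after three weeks.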
row,SMILES,"Herbicidal effect, B: Japanese bulrush"
1,CCOc1cc(F)ccc1-c1sc2cc(Cl)c(Cl)cc2c1-c1c(O)c(C)nn(C)c1=O [5-053],3 (Herbicidal rate of 40% or more and less than 70%)

# System: rice flat sedge
# Assay: Test Example 3: herbicidal effect by foliage application, Wagner pot (Table 18, symbol E)
# Type: in vivo, rice flat sedge (Cyperus iria)
# Conditions: 320 g/ha
# How it was run: (§3)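 Plants were sown in alluvial soil held under 0.1–0.5 cm standing water and grown 14 days in a greenhouse at 25–30 °C. An emulsifiable formulation, water-diluted to the set dose, was then sprayed onto the foliage, and effects were scored three weeks later using previously defined criteria.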
row,SMILES,herbicidal effect on rice flat sedge (E)
1,CCOc1cc(F)ccc1-c1sc2cc(Cl)c(Cl)cc2c1-c1c(O)c(C)nn(C)c1=O [5-053],5 (Herbicidal rate of 90% or more (almost completely withered))

# System: redroot pigweed
# Assay: Test Example 4: herbicidal effect by soil treatment (Table 19, symbol N)
# Type: in vivo, redroot pigweed (Amaranthus retroflexus)
# Conditions: amount of applied herbicide 320 g/ha
# How it was run: as §1
row,SMILES,"N: redroot pigweed, herbicidal effect grade"
1,CCOc1cc(F)ccc1-c1sc2cc(Cl)c(Cl)cc2c1-c1c(O)c(C)nn(C)c1=O [5-053],3 (Herbicidal rate of 40% or more and less than 70%)

# System: barnyard grass
# Assay: Test Example 4: herbicidal effect by soil treatment (Table 19, symbol H)
# Type: in vivo, barnyard grass (Echinochloa crus-galli)
# Conditions: amount of applied herbicide 320 g/ha
# How it was run: as §1
row,SMILES,"H: barnyard grass, herbicidal effect grade"
1,CCOc1cc(F)ccc1-c1sc2cc(Cl)c(Cl)cc2c1-c1c(O)c(C)nn(C)c1=O [5-053],0 (Herbicidal rate of 5% or less (almost no effect))

# System: windgrass
# Assay: Test Example 5: herbicidal effect by foliage application, plastic box (Table 20, symbol L)
# Type: in vivo, windgrass (Apera spica-venti)
# Conditions: foliage application, 320 g/ha, three weeks after application
# How it was run: (§4)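 Plants were sown into sterilized diluvial soil under about 1.5 cm cover and kept in a greenhouse at 25° C. to 30° C. Fourteen days on, foliage received an even spray of the diluted emulsion. Herbicidal or crop effect was judged three weeks afterwards.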
row,SMILES,herbicidal effect on windgrass (L)
1,CCOc1cc(F)ccc1-c1sc2cc(Cl)c(Cl)cc2c1-c1c(O)c(C)nn(C)c1=O [5-053],3 (Herbicidal rate of 40% or more and less than 70%)

# System: windgrass
# Assay: Test Example 4: herbicidal effect by soil treatment (Table 19, symbol L)
# Type: in vivo, windgrass (Apera spica-venti)
# Conditions: amount of applied herbicide 320 g/ha
# How it was run: as §1
row,SMILES,"L: windgrass, herbicidal effect grade"
1,CCOc1cc(F)ccc1-c1sc2cc(Cl)c(Cl)cc2c1-c1c(O)c(C)nn(C)c1=O [5-053],0 (Herbicidal rate of 5% or less (almost no effect))

# System: southern crabgrass
# Assay: Test Example 5: herbicidal effect by foliage application, plastic box (Table 20, symbol F)
# Type: in vivo, southern crabgrass (Digitaria ciliaris)
# Conditions: foliage application, 320 g/ha, three weeks after application
# How it was run: as §4
row,SMILES,herbicidal effect on southern crabgrass (F)
1,CCOc1cc(F)ccc1-c1sc2cc(Cl)c(Cl)cc2c1-c1c(O)c(C)nn(C)c1=O [5-053],3 (Herbicidal rate of 40% or more and less than 70%)

# System: late watergrass
# Assay: Test Example 1: herbicidal activity, application before weed generation under submerged conditions (Table 16, symbol A)
# Type: in vivo, late watergrass (Echinochloa oryzicola)
# Conditions: amount of applied herbicide 320 g/ha
# How it was run: as §2
row,SMILES,"Herbicidal effect, A: late watergrass"
1,CCOc1cc(F)ccc1-c1sc2cc(Cl)c(Cl)cc2c1-c1c(O)c(C)nn(C)c1=O [5-053],0 (Herbicidal rate of 5% or less (almost no effect))

# System: wild oat
# Assay: Test Example 4: herbicidal effect by soil treatment (Table 19, symbol I)
# Type: in vivo, wild oat (Avena fatua)
# Conditions: amount of applied herbicide 320 g/ha
# How it was run: as §1
row,SMILES,"I: wild oat, herbicidal effect grade"
1,CCOc1cc(F)ccc1-c1sc2cc(Cl)c(Cl)cc2c1-c1c(O)c(C)nn(C)c1=O [5-053],0 (Herbicidal rate of 5% or less (almost no effect))

# System: blackgrass
# Assay: Test Example 4: herbicidal effect by soil treatment (Table 19, symbol J)
# Type: in vivo, blackgrass (Alopecurus myosuroides)
# Conditions: amount of applied herbicide 320 g/ha
# How it was run: as §1
row,SMILES,"J: blackgrass, herbicidal effect grade"
1,CCOc1cc(F)ccc1-c1sc2cc(Cl)c(Cl)cc2c1-c1c(O)c(C)nn(C)c1=O [5-053],0 (Herbicidal rate of 5% or less (almost no effect))

# System: Italian ryegrass
# Assay: Test Example 5: herbicidal effect by foliage application, plastic box (Table 20, symbol K)
# Type: in vivo, Italian ryegrass (Lolium multiflorum)
# Conditions: foliage application, 320 g/ha, three weeks after application
# How it was run: as §4
row,SMILES,herbicidal effect on Italian ryegrass (K)
1,CCOc1cc(F)ccc1-c1sc2cc(Cl)c(Cl)cc2c1-c1c(O)c(C)nn(C)c1=O [5-053],0 (Herbicidal rate of 5% or less (almost no effect))

# System: barnyard grass
# Assay: Test Example 5: herbicidal effect by foliage application, plastic box (Table 20, symbol H)
# Type: in vivo, barnyard grass (Echinochloa crus-galli)
# Conditions: foliage application, 320 g/ha, three weeks after application
# How it was run: as §4
row,SMILES,herbicidal effect on barnyard grass (H)
1,CCOc1cc(F)ccc1-c1sc2cc(Cl)c(Cl)cc2c1-c1c(O)c(C)nn(C)c1=O [5-053],1 (Herbicidal rate of 5% or more and less than 20%)

# System: chickweed
# Assay: Test Example 4: herbicidal effect by soil treatment (Table 19, symbol P)
# Type: in vivo, common chickweed (Stellaria media)
# Conditions: amount of applied herbicide 320 g/ha
# How it was run: as §1
row,SMILES,"P: chickweed, herbicidal effect grade"
1,CCOc1cc(F)ccc1-c1sc2cc(Cl)c(Cl)cc2c1-c1c(O)c(C)nn(C)c1=O [5-053],0 (Herbicidal rate of 5% or less (almost no effect))

# System: Italian ryegrass
# Assay: Test Example 4: herbicidal effect by soil treatment (Table 19, symbol K)
# Type: in vivo, Italian ryegrass (Lolium multiflorum)
# Conditions: amount of applied herbicide 320 g/ha
# How it was run: as §1
row,SMILES,"K: Italian ryegrass, herbicidal effect grade"
1,CCOc1cc(F)ccc1-c1sc2cc(Cl)c(Cl)cc2c1-c1c(O)c(C)nn(C)c1=O [5-053],0 (Herbicidal rate of 5% or less (almost no effect))

# System: green foxtail
# Assay: Test Example 4: herbicidal effect by soil treatment (Table 19, symbol G)
# Type: in vivo, green foxtail (Setaria viridis)
# Conditions: amount of applied herbicide 320 g/ha
# How it was run: as §1
row,SMILES,"G: green foxtail, herbicidal effect grade"
1,CCOc1cc(F)ccc1-c1sc2cc(Cl)c(Cl)cc2c1-c1c(O)c(C)nn(C)c1=O [5-053],0 (Herbicidal rate of 5% or less (almost no effect))

# System: oval-leafed pondweed
# Assay: Test Example 1: herbicidal activity, application before weed generation under submerged conditions (Table 16, symbol C)
# Type: in vivo, oval-leafed pondweed (Monochoria vaginalis)
# Conditions: amount of applied herbicide 320 g/ha
# How it was run: as §2
row,SMILES,"Herbicidal effect, C: oval-leafed pondweed"
1,CCOc1cc(F)ccc1-c1sc2cc(Cl)c(Cl)cc2c1-c1c(O)c(C)nn(C)c1=O [5-053],0 (Herbicidal rate of 5% or less (almost no effect))

# System: blackgrass
# Assay: Test Example 5: herbicidal effect by foliage application, plastic box (Table 20, symbol J)
# Type: in vivo, blackgrass (Alopecurus myosuroides)
# Conditions: foliage application, 320 g/ha, three weeks after application
# How it was run: as §4
row,SMILES,herbicidal effect on blackgrass (J)
1,CCOc1cc(F)ccc1-c1sc2cc(Cl)c(Cl)cc2c1-c1c(O)c(C)nn(C)c1=O [5-053],0 (Herbicidal rate of 5% or less (almost no effect))

# System: barnyard grass
# Assay: Test Example 3: herbicidal effect by foliage application, Wagner pot (Table 18, symbol H)
# Type: in vivo, barnyard grass (Echinochloa crus-galli)
# Conditions: 320 g/ha
# How it was run: as §3
row,SMILES,herbicidal effect on barnyard grass (H)
1,CCOc1cc(F)ccc1-c1sc2cc(Cl)c(Cl)cc2c1-c1c(O)c(C)nn(C)c1=O [5-053],3 (Herbicidal rate of 40% or more and less than 70%)

# System: wild oat
# Assay: Test Example 5: herbicidal effect by foliage application, plastic box (Table 20, symbol I)
# Type: in vivo, wild oat (Avena fatua)
# Conditions: foliage application, 320 g/ha, three weeks after application
# How it was run: as §4
row,SMILES,herbicidal effect on wild oat (I)
1,CCOc1cc(F)ccc1-c1sc2cc(Cl)c(Cl)cc2c1-c1c(O)c(C)nn(C)c1=O [5-053],0 (Herbicidal rate of 5% or less (almost no effect))

# System: southern crabgrass
# Assay: Test Example 4: herbicidal effect by soil treatment (Table 19, symbol F)
# Type: in vivo, southern crabgrass (Digitaria ciliaris)
# Conditions: amount of applied herbicide 320 g/ha
# How it was run: as §1
row,SMILES,"F: southern crabgrass, herbicidal effect grade"
1,CCOc1cc(F)ccc1-c1sc2cc(Cl)c(Cl)cc2c1-c1c(O)c(C)nn(C)c1=O [5-053],0 (Herbicidal rate of 5% or less (almost no effect))

# System: velvetleaf
# Assay: Test Example 5: herbicidal effect by foliage application, plastic box (Table 20, symbol M)
# Type: in vivo, velvetleaf (Abutilon theophrasti)
# Conditions: foliage application, 320 g/ha, three weeks after application
# How it was run: as §4
row,SMILES,herbicidal effect on velvetleaf (M)
1,CCOc1cc(F)ccc1-c1sc2cc(Cl)c(Cl)cc2c1-c1c(O)c(C)nn(C)c1=O [5-053],5 (Herbicidal rate of 90% or more (almost completely withered))

# System: Chinese sprangletop
# Assay: Test Example 3: herbicidal effect by foliage application, Wagner pot (Table 18, symbol D)
# Type: in vivo, chinese sprangletop (Leptochloa chinensis)
# Conditions: 320 g/ha
# How it was run: as §3
row,SMILES,herbicidal effect on Chinese sprangletop (D)
1,CCOc1cc(F)ccc1-c1sc2cc(Cl)c(Cl)cc2c1-c1c(O)c(C)nn(C)c1=O [5-053],3 (Herbicidal rate of 40% or more and less than 70%)

# System: lambsquarters
# Assay: Test Example 5: herbicidal effect by foliage application, plastic box (Table 20, symbol O)
# Type: in vivo, lambsquarters (Chenopodium album)
# Conditions: foliage application, 320 g/ha, three weeks after application
# How it was run: as §4
row,SMILES,herbicidal effect on lambsquarters (O)
1,CCOc1cc(F)ccc1-c1sc2cc(Cl)c(Cl)cc2c1-c1c(O)c(C)nn(C)c1=O [5-053],3 (Herbicidal rate of 40% or more and less than 70%)

# System: green foxtail
# Assay: Test Example 5: herbicidal effect by foliage application, plastic box (Table 20, symbol G)
# Type: in vivo, green foxtail (Setaria viridis)
# Conditions: foliage application, 320 g/ha, three weeks after application
# How it was run: as §4
row,SMILES,herbicidal effect on green foxtail (G)
1,CCOc1cc(F)ccc1-c1sc2cc(Cl)c(Cl)cc2c1-c1c(O)c(C)nn(C)c1=O [5-053],4 (Herbicidal rate of 70% or more and less than 90%)

# System: persian speedwell
# Assay: Test Example 5: herbicidal effect by foliage application, plastic box (Table 20, symbol R)
# Type: in vivo, Persian speedwell (Veronica persica)
# Conditions: foliage application, 320 g/ha, three weeks after application
# How it was run: as §4
row,SMILES,herbicidal effect on persian speedwell (R)
1,CCOc1cc(F)ccc1-c1sc2cc(Cl)c(Cl)cc2c1-c1c(O)c(C)nn(C)c1=O [5-053],5 (Herbicidal rate of 90% or more (almost completely withered))

# System: velvetleaf
# Assay: Test Example 4: herbicidal effect by soil treatment (Table 19, symbol M)
# Type: in vivo, velvetleaf (Abutilon theophrasti)
# Conditions: amount of applied herbicide 320 g/ha
# How it was run: as §1
row,SMILES,"M: velvetleaf, herbicidal effect grade"
1,CCOc1cc(F)ccc1-c1sc2cc(Cl)c(Cl)cc2c1-c1c(O)c(C)nn(C)c1=O [5-053],0 (Herbicidal rate of 5% or less (almost no effect))

# System: persian speedwell
# Assay: Test Example 4: herbicidal effect by soil treatment (Table 19, symbol R)
# Type: in vivo, Persian speedwell (Veronica persica)
# Conditions: amount of applied herbicide 320 g/ha
# How it was run: as §1
row,SMILES,"R: persian speedwell, herbicidal effect grade"
1,CCOc1cc(F)ccc1-c1sc2cc(Cl)c(Cl)cc2c1-c1c(O)c(C)nn(C)c1=O [5-053],1 (Herbicidal rate of 5% or more and less than 20%)
